The subject of experiment [1] is human umbilical vein endothelial cells. Particulars: in culture, cited from earlier work.
Experiment [2] relates to tumor angiogenesis. Particulars: mouse tumor xenograft models; cited from earlier work.
For experiment [3], the system named is tumor cells grown in culture. Particulars: cited from earlier work.
In experiment [4] the test system is subcutaneous xenograft tumors. The note with it: cited from earlier work; for growth of tumor cells grown as subcutaneous xenografts: athymic mice.
Experiment [5] relates to mast cells (MCs). The experiment can be described thus: Mast cell density in LV of WT mice treated with cromolyn. It counts as in vivo, mouse. The note with it: cromolyn 60 mg/kg/day. The source says: (§1) Induction of pressure overload: At eight weeks of age, WT or Kit^w/Kit^w-v mice were subjected to suprarenal aortic constriction (SAC) to induce hypertension and, thus, pressure overload, or to sham operation, as previously described (M. Li et al. (2004)). One group (both SAC and sham-operated animals) was allowed to recover from surgery for 2 days and animals surviving this peri-operative period were then followed for survival over the next 28 days. A second group were sacrificed at 3, 7 or 14 days after SAC, and a third group was treated with the mast cell stabilizer, sodium chromoglycate (60 mg/kg/day, intraperitoneal, osmotic minipump) for one week before and then for the 7 days after surgery, at which time they were sacrificed.

The test system of experiment [6] is c-kit+ CSCs. The experiment can be described thus: c-kit+ cardiac stem cell numbers in LV of 7-day-SAC WT mice. Format: in vivo, mouse. The note with it: cromolyn 60 mg/kg/day started 7 days before SAC, n=5.
Text: as §1, with “sacrificed. […] There are several different but overlapping types of CSCs, which are grouped according to cell surface markers, e.g., ckit+, Sca1+, MDR1+, isl1+, e-kit+ CSCs differentiated into cardiomyocytes contributing to repair of a damaged heart. […] In the W/W^v- and WT-SAC LV myocardium, c-kit^+ CSCs occurred individually, in pairs or in large clusters. c-kit^+ CSC clusters were not seen in the LVs of WT- or […] were rare in WT-SAC mice. Compared to sham controls, 7 days of SAC increased c-kit^+ CSCs 19-fold in the […]<0.001; FIG. 6A). Compared to the WT-SAC LV, the increase was 5.5-fold (P<0.01; FIG. 6A). […]” for “sacrificed.”

We go through three compounds from patent publication US20090304625A1, “MODULATORS OF CARDIAC CELL HYPERTROPHY AND HYPERPLASIA” (priority 2006, published 2009).

As to `Cc1cc(C)c(/C=C2\C(=O)Nc3ccccc32)[nH]1` [SU5416], the “VEGF-induced proliferation of human umbilical vein endothelial cells” value in experiment [1] (VEGF-induced) is on record as “inhibits”. In addition, in experiment [2], the “tumor angiogenesis in vivo” value is “inhibit tumor angiogenesis in vivo”. Further, in experiment [3], the “growth of tumor cells grown in culture” value is “neither compound potently inhibits”. Further, in experiment [4], the “growth of tumor cells grown as subcutaneous xenografts” value is “inhibit the growth”.
On to `Cc1[nH]c(/C=C2\C(=O)Nc3ccccc32)c(C)c1CCC(=O)O` [SU6668], for which the “VEGF- and FGF-induced proliferation of human umbilical vein endothelial cells” value in experiment [1] (VEGF- and FGF-induced) is “inhibits”. In addition, the “tumor angiogenesis in vivo” value in experiment [2] is “inhibit tumor angiogenesis in vivo”. Moreover, the “growth of tumor cells grown in culture” value in experiment [3] was “neither compound potently inhibits”. Also, in experiment [4], the “growth of tumor cells grown as subcutaneous xenografts” value was “inhibit the growth”. The “regression of established xenograft tumors” value in experiment [4] (mice) is “causes regression”.
`O=C(O)c1cc(=O)c2c(OCC(O)COc3cccc4oc(C(=O)O)cc(=O)c34)cccc2o1` [cromolyn, sodium chromoglycate]: in experiment [5], the “reduction of MC density” value is given as “approximately 80%”. In experiment [5] (n=4), this compound gave an MC density of 0.45±0.2 MCs/mm^2. Further, the “c-kit+ CSCs” value in experiment [6] turned out to be 38±3 CSCs/mm^2.
